pEC50: −log10 of the molar value.
Tests used:
Type in all cases: cell-based
ΔF508-CFTR [1] = molecular target: T1, ΔF508-CFTR (Homo sapiens, UniProt P13569, DEL508-508); assay: CFTR cell surface levels using HRP-tagged ΔF508-CFTR expressing CFBE cells, intrinsic corrector capacity; set-up: % Activation: concentration or dose not given beside the values; details: HRP-tagged ΔF508-CFTR expressing CFBE41o- cells, compound alone (intrinsic corrector capacity), 20 hours at 33° C.; for pEC50: read-out: EC50
T1 construct: host or cells: CFBE41o-, doxycycline-inducible
T1 sequence (P13569 with tags, fused parts or gaps DEL508-508): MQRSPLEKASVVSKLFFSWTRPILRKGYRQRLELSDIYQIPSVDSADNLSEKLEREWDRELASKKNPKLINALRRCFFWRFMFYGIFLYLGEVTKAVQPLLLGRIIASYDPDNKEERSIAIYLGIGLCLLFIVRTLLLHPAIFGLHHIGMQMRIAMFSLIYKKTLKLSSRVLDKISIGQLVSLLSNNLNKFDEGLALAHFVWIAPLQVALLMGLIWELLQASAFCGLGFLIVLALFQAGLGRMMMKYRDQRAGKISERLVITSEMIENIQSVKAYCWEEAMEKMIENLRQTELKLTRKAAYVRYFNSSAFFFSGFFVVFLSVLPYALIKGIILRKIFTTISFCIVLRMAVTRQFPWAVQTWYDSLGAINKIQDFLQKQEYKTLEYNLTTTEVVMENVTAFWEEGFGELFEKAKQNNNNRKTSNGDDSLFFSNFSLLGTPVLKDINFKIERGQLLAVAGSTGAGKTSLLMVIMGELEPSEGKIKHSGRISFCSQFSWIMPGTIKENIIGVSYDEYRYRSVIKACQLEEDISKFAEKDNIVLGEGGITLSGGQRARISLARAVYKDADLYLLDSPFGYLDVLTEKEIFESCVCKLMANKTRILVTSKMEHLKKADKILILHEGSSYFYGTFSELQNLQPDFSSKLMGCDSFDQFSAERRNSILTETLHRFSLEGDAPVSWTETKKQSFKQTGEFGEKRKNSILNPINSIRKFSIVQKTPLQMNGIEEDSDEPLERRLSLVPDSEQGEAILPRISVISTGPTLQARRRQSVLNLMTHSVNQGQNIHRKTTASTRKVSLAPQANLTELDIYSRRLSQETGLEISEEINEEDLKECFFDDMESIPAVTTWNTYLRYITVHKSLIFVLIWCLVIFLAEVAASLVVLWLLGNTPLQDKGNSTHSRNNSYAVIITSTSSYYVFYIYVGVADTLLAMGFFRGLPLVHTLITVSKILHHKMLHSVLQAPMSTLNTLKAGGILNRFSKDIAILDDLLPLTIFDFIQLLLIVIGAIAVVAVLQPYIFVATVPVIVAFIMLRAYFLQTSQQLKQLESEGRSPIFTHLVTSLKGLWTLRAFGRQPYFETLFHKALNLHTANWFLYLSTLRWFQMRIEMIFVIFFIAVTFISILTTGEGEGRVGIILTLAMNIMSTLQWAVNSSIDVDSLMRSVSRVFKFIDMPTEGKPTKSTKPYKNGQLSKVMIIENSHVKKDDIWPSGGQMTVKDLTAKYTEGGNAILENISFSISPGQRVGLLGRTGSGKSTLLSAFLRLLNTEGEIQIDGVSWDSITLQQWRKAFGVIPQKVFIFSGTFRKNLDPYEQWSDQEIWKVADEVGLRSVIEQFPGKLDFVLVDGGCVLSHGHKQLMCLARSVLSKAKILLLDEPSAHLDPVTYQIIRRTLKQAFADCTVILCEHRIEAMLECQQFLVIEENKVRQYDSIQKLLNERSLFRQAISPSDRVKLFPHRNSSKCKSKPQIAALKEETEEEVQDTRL
Procedure, shortened: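 Surface ΔF508-CFTR was measured as HRP chemiluminescence from an extracellular-loop-4 tag, expressed as percent activity between DMSO and a […] corrector control.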

ΔF508-CFTR [2] = molecular target: T1, ΔF508-CFTR; assay: CFTR cell surface levels using HRP-tagged ΔF508-CFTR expressing CFBE cells, in the presence of a co-corrector; details: HRP-tagged ΔF508-CFTR CFBE cells, in the presence of 3 μM co-corrector; for pEC50: read-out: EC50
Procedure, shortened: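 Chemiluminescent read-out of surface HRP (15 min, dark) after PBS washes. Activity is normalized as 100×(sample−DMSO)/(3 μM co-corrector alone−DMSO).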

CFTR ΔF508 = molecular target: T2, CFTR ΔF508 (Homo sapiens, UniProt P13569, DEL508-508); assay: Chronic TECC assay, primary bronchial epithelial cells of CF patients homozygous for CFTR ΔF508 (corrector, co-corrector and potentiator); details: chronic TECC, AUC = full area under the curve upon forskolin stimulation; for % Activity at 1 μM (AUC**): test compound at 1 μM; for EC50: read-out: EC50 (nM) (AUC**)
T2 construct: bronchial epithelial cells isolated from CF patients homozygous for the CFTR ΔF508 mutation; McGill University; Asterand; University of North Carolina hAEC-CF; host or cells: primary human bronchial epithelial cells from CF patients homozygous for ΔF508, differentiated at air-liquid interface
T2 sequence (P13569 with tags, fused parts or gaps DEL508-508): as above
Procedure, shortened: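 Primary bronchial epithelial cells from ΔF508-homozygous CF patients on collagen IV-coated Transwells were chronically treated with test compound plus corrector and potentiator, which were re-added before recording. Ieq was derived from PD and Rt in NaCl-Ringer, pH 7.4, at 37° C, with apical amiloride and bilateral forskolin, recorded every 2 min over 20 min. Ieq increase was normalized to controls, and EC50 was taken from per-well concentrations.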

Row | Structure (SMILES) | % Activation (ΔF508-CFTR [1]) [%] | pEC50 (ΔF508-CFTR [1]) | % Activation (ΔF508-CFTR [2]) [%] | pEC50 (ΔF508-CFTR [2]) | % Activity at 3 μM (AUC**) (CFTR ΔF508; test compound at 3 μM) [%] | % Activity at 1 μM (AUC**) (CFTR ΔF508) [%] | EC50 (CFTR ΔF508) [nM]
1 | CCS(=O)(=O)N(C)C(=O)c1cc(N2CCC(CN3CCCC3)CC2)c2c(C3CCC3)nn(-c3ccccc3)c2n1 [Compound 659, 3-cyclobutyl-N-(ethanesulfonyl)-N-methyl-1-phenyl-4-{4-[(pyrrolidin-1-yl)methyl]piperidin-1-yl}-1H-pyrazolo[3,4-b]pyridine-6-carboxamide] | 96.44 | 6.85 | 290.95 | 6.88 | 251.6549 | – | –
2 | COCCS(=O)(=O)NC(=O)c1cc(OCC2(C)COC2)c2c(C3CCC3)nn(-c3ccccc3)c2n1 [Compound 269, 3-cyclobutyl-N-(2-methoxyethanesulfonyl)-4-[(3-methyloxetan-3-yl)methoxy]-1-phenyl-1H-pyrazolo[3,4-b]pyridine-6-carboxamide] | 120.6 | 6.61 | 275.45 | 7.01 | – | 172.35 | –
3 | CC(C)Oc1nn(C2CCCCC2)c2nc(C(=O)NS(C)(=O)=O)cc(-c3ccc(CN4CCN(C(C)C)CC4)cc3)c12 [Compound 634, 1-cyclohexyl-N-(methanesulfonyl)-3-[(propan-2-yl)oxy]-4-(4-{[4-(propan-2-yl)piperazin-1-yl]methyl}phenyl)-1H-pyrazolo[3,4-b]pyridine-6-carboxamide] | 227.46 | 6.70 | 439.44 | 7.10 | – | – | 138
4 | COC1CCN(c2cc(C(=O)NS(C)(=O)=O)nc3c2c(C(C)C)nn3-c2ccnc(N3CCCC3)c2)CC1 [Compound 188, N-(methanesulfonyl)-4-(4-methoxypiperidin-1-yl)-3-(propan-2-yl)-1-[2-(pyrrolidin-1-yl)pyridin-4-yl]-1H-pyrazolo[3,4-b]pyridine-6-carboxamide] | 214.93 | 6.56 | 405.37 | 6.80 | – | 257.3 | –
5 | CN(C)S(=O)(=O)NC(=O)c1cc(N2CCC(N3CCC(F)(F)CC3)CC2)c2c(C3CCC3)nn(-c3ccc(F)cc3)c2n1 [Compound 526, 3-cyclobutyl-4-(4,4-difluoro[1,4'-bipiperidin]-1'-yl)-N-(dimethylsulfamoyl)-1-(4-fluorophenyl)-1H-pyrazolo[3,4-b]pyridine-6-carboxamide] | 269.23 | 6.82 | 472.58 | 6.97 | – | 400 | 14.2
6 | COCC1CCN(c2cc(C(=O)NS(=O)(=O)CCCN3CCOCC3)nc3c2c(C(C)C)nn3-c2ccc(F)cc2)CC1 [Compound 272, 1-(4-fluorophenyl)-4-[4-(methoxymethyl)piperidin-1-yl]-N-[3-(morpholin-4-yl)propane-1-sulfonyl]-3-(propan-2-yl)-1H-pyrazolo[3,4-b]pyridine-6-carboxamide] | 268.2 | 7.02 | 451.2 | 7.36 | – | 285.35 | –
